Experimental data taken from article doi:10.1101/2025.05.02.651384v1 (biorxiv, 2025).

target: T1, HCAR1 (GPR81) (Homo sapiens, UniProt Q9BXC0); assay: ebBRET Gαi2 activation; format: cell-based; settings: Gαi2, 37 °C, agonist
T1 sequence (Q9BXC0 whole entry): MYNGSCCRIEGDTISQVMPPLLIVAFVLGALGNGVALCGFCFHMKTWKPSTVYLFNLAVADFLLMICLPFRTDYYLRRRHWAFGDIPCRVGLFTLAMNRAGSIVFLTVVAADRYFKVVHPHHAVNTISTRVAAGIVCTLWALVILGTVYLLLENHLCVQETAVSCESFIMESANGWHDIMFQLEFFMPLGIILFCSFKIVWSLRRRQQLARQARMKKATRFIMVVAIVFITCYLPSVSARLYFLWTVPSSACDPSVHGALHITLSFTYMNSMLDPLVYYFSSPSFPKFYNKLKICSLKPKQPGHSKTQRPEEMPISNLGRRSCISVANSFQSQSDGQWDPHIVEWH

Row | EC50 [µM] | Structure (SMILES)
1 | 7.1 | CCOc1cc(Cl)c(C(=O)NC(=O)Nc2nc3c(s2)CN(C(C)=O)CC3)cc1N1CCOCC1 [AZ4901]
2 | 1.78 | CCOc1cc(Cl)c(C(=O)NC(=O)Nc2ncc(C)s2)cc1N1CCOCC1 [AZ2053]
3 | 6.8 | CCOc1cc(Cl)c(-c2ccc(-c3nc4ccccc4s3)c(=O)[nH]2)cc1N1CCOCC1 [AZ9234]
4 | 2 | CCOc1cc(Cl)c(C(=O)NC(=O)Nc2nc3c(s2)CCCC3)cc1N1CCOCC1 [AZ9091]

target: T1, HCAR1 (GPR81); assay: ebBRET Gαz activation; format: cell-based; settings: not given

Row | EC50 [µM] | Structure (SMILES)
5 | 1000 | C[C@H](O)C(=O)O [(+)-lactic acid]
6 | 0.2 | O=C(O)c1cc(O)cc(O)c1 [3,5-DHBA]

Row | Structure (SMILES) | EC50 [µM]
7 | CN1CCN(C(=O)Cc2sc(NC(=O)[C@H]3CC[C@H](C)CC3)nc2-c2cccs2)CC1 [GPR81 agonist 1] | 0.63
